Legend:
CB1R [1] = target: T1, CB1R (Rattus norvegicus, UniProt P20272); assay: [3H]WIN55,212-2 radioligand competition binding assay in rat brain membrane homogenate; settings: for Ki [3H]WIN55,212-2 binding: 5 nM [3H]WIN55,212-2, ± SEM, n.b. = no binding of ligands was observed; for Ki: read-out: Ki [3H]WIN55,212-2 binding, 5 nM [3H]WIN55,212-2, ± SEM, n.b. = no binding of ligands was observed
T1 construct: Crude membrane fractions were prepared from the brain; from tissue; host or cells: Wistar rat whole brain, crude membrane fraction
Method: (§1) Our novel chemical compounds were tested in vitro for their binding ability, efficacy, and potency on CB1R in rat brain membrane homogenate (Table 2 and SI, Figure S1). CB1Rs are the most abundant G-protein coupled receptors in the rodent and mammalian brain; therefore, this is an appropriate model to characterize our ligands in a more physiological system.
(§2) In Vitro Biological Assays
(§3) Preparation of Brain Membrane Homogenates
(§4) Wistar rats were locally bred and handled according to the EU Directive 2010/63/EU and to the Regulations on Animal Protection (40/2013. (II. 14.) Korm. r.) of Hungary. Crude membrane fractions were prepared from the brain. Brains were quickly removed from the euthanized rats and directly put in an ice-cold 50 mM Tris-HCl buffer (pH 7.4). The collected tissue was then homogenized in 30 volumes (v/w) of an ice-cold buffer with a Braun Teflon-glass homogenizer at the highest rpm. The homogenate was centrifuged at 20,000 × g for 25 min, and the resulting pellet was suspended in the same volume of a cold buffer followed by incubation at 37 °C for 30 min to remove endogenous ligands. Centrifugation was then repeated. The final pellets were taken up in five volumes of a 50 mM Tris-HCl (pH 7.4) buffer containing 0.32 M sucrose and stored at -80 °C. Prior to the experiment, aliquots were thawed and centrifuged at 20,000 ×g for 25 min and then they were resuspended in 50 mM Tris-HCl (pH 7.4), homogenized with a Douncer, followed by the determination of the protein concentration by the method of Bradford. The membrane suspensions were immediately used either in radioligand binding experiments or in [35S]GTPγS functional assays.
Radioligand Competition Binding Assay
Binding experiments were performed at 30 °C for 60 min in a 50 mM Tris-HCl binding buffer (pH 7.4) containing 2.5 mM of EGTA, 5 mM of MgCl2 and 0.5 mg/mL of fatty acid-free BSA in plastic tubes in a total assay volume of 1 mL that contained 0.3-0.5 mg/mL of a membrane protein. Competition binding […]
ligands. […] The incubation […]
was terminated by diluting the samples with an ice-cold wash buffer (50 mM of Tris-HCl, 2.5 mM of EGTA, 5 mM of MgCl2, 0.5% fatty acid free BSA, pH 7.4), followed by repeated washing and rapid filtration through Whatman GF/B glass fiber filters (Whatman Ltd., Maidstone, UK) pre-soaked with 0.1% polyethyleneimine (30 min before the filtration). Filtration was performed with a 24-well Brandel Cell Harvester (Gaithersburg, MD, USA). Filters were air-dried and immersed into Ultima Gold MV scintillation cocktail, and then radioactivity was measured with a TRI-CARB 2100TR liquid scintillation analyzer (Packard, Perkin Elmer, Waltham, MA, USA). […]
The results of the competition binding studies are reported as means ± S.E.M. of at least three independent experiments each performed in duplicate. In competition binding studies, the inhibitory constants (Ki) were calculated from the inflection points of the displacement curves using non-linear least-square curve fitting and the Cheng-Prusoff equation, Ki= […]/(1 + [ligand]/Kd). […]

CB1R [2] = target: T1, CB1R; assay: Ligand stimulated [35S]GTPγS binding assay in rat brain membranes; type: biochemical; settings: for EC50 / CB1R functional profile (agonist / antagonist / inverse agonist): rat brain membranes; for EC50: ± SEM, read-out: [35S]GTPγS stimulation EC50; for Emax: read-out: [35S]GTPγS stimulation Emax; for CB1R functional profile (agonist / antagonist / inverse agonist): from [35S]GTPγS binding
Method: as §1, §2, §3
as §4, with “assays. […]” for “assays.”
was terminated by diluting the samples with an ice-cold wash buffer (50 mM of Tris-HCl, 2.5 mM of EGTA, 5 mM of MgCl2, 0.5% fatty acid free BSA, pH 7.4), followed by repeated washing and rapid filtration through Whatman GF/B glass fiber filters (Whatman Ltd., Maidstone, UK) pre-soaked with 0.1% polyethyleneimine (30 min before the filtration). Filtration was performed with a 24-well Brandel Cell Harvester (Gaithersburg, MD, USA). Filters were air-dried and immersed into Ultima Gold MV scintillation cocktail, and then radioactivity was measured with a TRI-CARB 2100TR liquid scintillation analyzer (Packard, Perkin Elmer, Waltham, MA, USA).
Ligand Stimulated [35S]GTPγS Binding Assay
Rat brain membranes (30 µg protein/tube), prepared as described above, were incubated with 0.05 nM of […]
mM of NaCl, 3 mM of MgCl2 and 1 mM of EGTA in a 50 mM Tris-HCl buffer (pH 7.4) for 60 min at 30 °C. Basal [35S]GTPγS binding was measured in the absence of ligands and set as 100%. Nonspecific […]
binding was determined by the addition of 10 µM unlabelled GTPγS and subtracted from total binding.
Incubation, filtration and radioactivity measurements of the samples were carried out as described above. […]
All […]
data and curves were analyzed by GraphPad Prism 5.0 (San Diego, CA, USA).

T1 sequence (P20272 whole entry): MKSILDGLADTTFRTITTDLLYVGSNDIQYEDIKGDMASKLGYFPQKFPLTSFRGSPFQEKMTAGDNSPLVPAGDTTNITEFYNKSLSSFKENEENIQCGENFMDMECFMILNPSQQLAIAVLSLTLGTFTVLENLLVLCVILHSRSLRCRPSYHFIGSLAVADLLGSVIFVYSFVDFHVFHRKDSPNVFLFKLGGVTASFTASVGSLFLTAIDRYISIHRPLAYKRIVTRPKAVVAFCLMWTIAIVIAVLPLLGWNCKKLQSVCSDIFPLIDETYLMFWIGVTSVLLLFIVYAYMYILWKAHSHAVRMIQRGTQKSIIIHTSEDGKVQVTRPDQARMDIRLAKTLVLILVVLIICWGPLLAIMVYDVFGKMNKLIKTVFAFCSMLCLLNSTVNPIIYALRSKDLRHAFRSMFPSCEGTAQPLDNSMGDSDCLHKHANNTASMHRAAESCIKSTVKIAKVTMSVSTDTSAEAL

Row | SMILES | Ki [3H]WIN55,212-2 binding (CB1R [1]) | EC50 (CB1R [2]) [nM] | Ki (CB1R [1]) [nM] | Emax (CB1R [2]) [%] | CB1R functional profile (agonist / antagonist / inverse agonist) (CB1R [2])
1 | CC(C)[C@H](NC(=O)c1cc(-n2cccc2)n(-c2ccc(Cl)cc2)n1)C(=O)O [Compound 1, RS2689-Val-OH] | n.b. | 5870 ± 372 | – | – | –
2 | CC(C)(C)[C@H](NC(=O)c1cc(-n2cccc2)n(-c2ccc(Cl)cc2)n1)C(=O)O [Compound 2, RS2689-tLeu-OH] | n.b. | 712 ± 18 | – | – | –
3 | Cc1c(C(=O)N[C@H](C(=O)O)C(C)C)nn(-c2ccc(Cl)cc2)c1-n1cccc1 [Compound 3, RS2691-Val-OH] | n.b. | > 10000 | – | – | –
4 | Cc1c(C(=O)N[C@H](C(=O)O)C(C)(C)C)nn(-c2ccc(Cl)cc2)c1-n1cccc1 [Compound 4, RS2691-tLeu-OH] | – | 4610 ± 303 | 5880 ± 152 | – | –
5 | CC(C)[C@H](NC(=O)c1cc(-n2cccc2)n(-c2ccccc2)n1)C(=O)O [Compound 5, RS2708-Val-OH] | n.b. | 1650 ± 75 | – | – | –
6 | CC(C)(C)[C@H](NC(=O)c1cc(-n2cccc2)n(-c2ccccc2)n1)C(=O)O [Compound 6, RS2708-tLeu-OH] | n.b. | 2450 ± 118 | – | – | –
7 | Cc1c(C(=O)N[C@H](C(=O)O)C(C)C)nn(-c2ccccc2)c1-n1cccc1 [Compound 7, RS2709-Val-OH] | n.b. | 2550 ± 106 | – | – | –
8 | Cc1c(C(=O)N[C@H](C(=O)O)C(C)(C)C)nn(-c2ccccc2)c1-n1cccc1 [Compound 8, RS2709-tLeu-OH] | n.b. | 3400 ± 118 | – | – | –
9 | Cc1c(C(=O)N[C@H](C(=O)O)C(C)C)nn(-c2ccc(Cl)cc2Cl)c1-n1cccc1Cl [Compound 9, RS3516-Val-OH] | n.b. | 3430 ± 283 | – | – | –
10 | Cc1c(C(=O)N[C@H](C(=O)O)C(C)(C)C)nn(-c2ccc(Cl)cc2Cl)c1-n1cccc1Cl [Compound 10, RS3516-tLeu-OH] | n.b. | 1650 ± 98 | – | – | –
11 | CC(C)[C@H](NC(=O)c1cc(-n2cccc2)n(-c2ccc(Cl)cc2)n1)C(N)=O [Compound 11, RS2689-Val-NH2] | – | 1160 ± 79 | 341 ± 19 | – | –
12 | CC(C)(C)[C@H](NC(=O)c1cc(-n2cccc2)n(-c2ccc(Cl)cc2)n1)C(N)=O [Compound 12, RS2689-tLeu-NH2] | – | – | 102 ± 16 | – | –
13 | Cc1c(C(=O)N[C@H](C(N)=O)C(C)C)nn(-c2ccc(Cl)cc2)c1-n1cccc1 [Compound 13, RS2691-Val-NH2] | – | – | 123 ± 13 | – | –
14 | CC(C)[C@H](NC(=O)c1cc(-n2cccc2)n(-c2ccccc2)n1)C(N)=O [Compound 15, RS2708-Val-NH2] | n.b. | 1230 ± 121 | – | – | –
15 | CC(C)(C)[C@H](NC(=O)c1cc(-n2cccc2)n(-c2ccccc2)n1)C(N)=O [Compound 16, RS2708-tLeu-NH2] | – | 295 ± 38 | 1470 ± 103 | – | –
16 | Cc1c(C(=O)N[C@H](C(N)=O)C(C)C)nn(-c2ccccc2)c1-n1cccc1 [Compound 17, RS2709-Val-NH2] | – | 4240 ± 377 | 1060 ± 72 | – | –
17 | COC(=O)[C@@H](NC(=O)c1nn(-c2ccc(Cl)cc2)c(-n2cccc2)c1C)C(C)C [Compound 23, RS2691-Val-OCH3] | – | 4870 ± 225 | 55 ± 5.2 | – | –
18 | COC(=O)[C@@H](NC(=O)c1cc(-n2cccc2)n(-c2ccccc2)n1)C(C)C [Compound 25, RS2708-Val-OCH3] | – | 468 ± 22 | 1360 ± 16 | – | –
19 | COC(=O)[C@@H](NC(=O)c1nn(-c2ccccc2)c(-n2cccc2)c1C)C(C)C [Compound 27, RS2709-Val-OCH3] | – | 2080 ± 129 | 449 ± 15 | – | –
20 | COC(=O)[C@@H](NC(=O)c1nn(-c2ccccc2)c(-n2cccc2)c1C)C(C)(C)C [Compound 28, RS2709-tLeu-OCH3] | – | 1030 ± 117 | 369 ± 19 | 55 ± 5 | –
21 | COC(=O)[C@@H](NC(=O)c1nn(-c2ccc(Cl)cc2Cl)c(-n2cccc2Cl)c1C)C(C)(C)C [Compound 30, RS3516-tLeu-OCH3] | – | 4390 ± 344 | 21 ± 4.4 | – | –
22 | CNC(=O)[C@@H](NC(=O)c1cc(-n2cccc2)n(-c2ccc(Cl)cc2)n1)C(C)C [Compound 31, RS2689-Val-NHCH3] | modest affinity | 601 ± 21 | 387 ± 33 | – | weak inverse agonist
23 | CNC(=O)[C@@H](NC(=O)c1cc(-n2cccc2)n(-c2ccc(Cl)cc2)n1)C(C)(C)C [Compound 32, RS2689-tLeu-NHCH3] | – | 389 ± 51 | 42 ± 2.9 | 120 ± 2 | agonist
24 | CNC(=O)[C@@H](NC(=O)c1nn(-c2ccc(Cl)cc2)c(-n2cccc2)c1C)C(C)C [Compound 33, RS2691-Val-NHCH3] | – | – | 168 ± 16 | – | antagonists
25 | CNC(=O)[C@@H](NC(=O)c1cc(-n2cccc2)n(-c2ccccc2)n1)C(C)C [Compound 35, RS2708-Val-NHCH3] | modest affinity | 2460 ± 240 | 7940 ± 266 | – | weak inverse agonist
26 | CNC(=O)[C@@H](NC(=O)c1cc(-n2cccc2)n(-c2ccccc2)n1)C(C)(C)C [Compound 36, RS2708-tLeu-NHCH3] | – | – | 616 ± 16 | – | antagonists
27 | CNC(=O)[C@@H](NC(=O)c1nn(-c2ccccc2)c(-n2cccc2)c1C)C(C)C [Compound 37, RS2709-Val-NHCH3] | modest affinity | 7080 ± 398 | 1060 ± 85 | 55 ± 9 | weak inverse agonist
28 | CNC(=O)[C@@H](NC(=O)c1nn(-c2ccccc2)c(-n2cccc2)c1C)C(C)(C)C [Compound 38, RS2709-tLeu-NHCH3] | – | – | 42 ± 3.9 | 102 ± 2 | antagonists
29 | CNC(=O)[C@@H](NC(=O)c1nn(-c2ccc(Cl)cc2Cl)c(-n2cccc2Cl)c1C)C(C)C [Compound 39, RS3516-Val-NHCH3] | modest affinity | 3540 ± 193 | 185 ± 17 | – | weak inverse agonist
